Patent US7491489B2 (priority 2004, dated 2009)
In brackets after ≈: the same amount, converted by molar mass.

How the values were obtained:
SARS-CoV GZ50 strain [1] = system: SARS-CoV GZ50 strain
SARS-CoV GZ50 strain [2] = assay type: cell-based

Compound | IC90 (peptide concentration that reduced the viral titer by 90% relative to untreated control) (SARS-CoV GZ50 strain [1]) [µg/mL] | Intracellular viral RNA levels (SARS-CoV GZ50 strain [2]) | Released viral titer relative to untreated control (SARS-CoV GZ50 strain [1]) | Cytotoxic effects on peptide-treated cells (FRhK-4 cells)
CC[C@H](C)[C@H](NC(=O)CNC(=O)[C@H](CC(C)C)NC(=O)[C@@H]1CCCN1C(=O)[C@H](CC(C)C)NC(=O)[C@H](CCCCN)NC(=O)[C@@H](N)Cc1ccccc1)C(=O)N[C@@H](CC(N)=O)C(=O)N[C@H](C(=O)N[C@H](C(=O)N[C@@H](CC(N)=O)C(=O)N[C@@H](Cc1ccccc1)C(=O)N[C@@H](CCCNC(=N)N)C(=O)N[C@@H](C)C(=O)N[C@H](C(=O)N[C@@H](CC(C)C)C(=O)N[C@H](C(=O)N[C@@H](C)C(=O)N[C@@H](Cc1ccccc1)C(=O)N[C@@H](CO)C(=O)O)[C@@H](C)O)[C@@H](C)CC)[C@@H](C)O)[C@@H](C)CC [P1] | >500 |  |  | 
CC[C@H](C)[C@H](NC(=O)CN)C(=O)NCC(=O)N[C@H](C(=O)N[C@H](C(=O)N[C@@H](CCC(N)=O)C(=O)N[C@@H](CC(N)=O)C(=O)N[C@H](C(=O)N[C@@H](CC(C)C)C(=O)N[C@@H](Cc1ccc(O)cc1)C(=O)N[C@@H](CCC(=O)O)C(=O)N[C@@H](CC(N)=O)C(=O)N[C@@H](CCC(N)=O)C(=O)N[C@@H](CCCCN)C(=O)N[C@@H](CCC(N)=O)C(=O)N[C@H](C(=O)N[C@@H](C)C(=O)N[C@@H](CC(N)=O)C(=O)N[C@@H](CCC(N)=O)C(=O)N[C@@H](Cc1ccccc1)C(=O)O)[C@@H](C)CC)C(C)C)[C@@H](C)O)C(C)C [P9] | >500 |  |  | 
CC[C@H](C)[C@H](NC(=O)[C@H](CCC(=O)O)NC(=O)[C@H](CO)NC(=O)[C@@H](NC(=O)[C@H](CCCCN)NC(=O)[C@@H]1CCCN1C(=O)[C@H](CC(=O)O)NC(=O)[C@H](CCCNC(=N)N)NC(=O)[C@@H](NC(=O)[C@H](CO)NC(=O)[C@H](CC(=O)O)NC(=O)[C@@H](NC(=O)[C@H](Cc1ccccc1)NC(=O)[C@H](CC(=O)O)NC(=O)[C@H](CO)NC(=O)[C@@H](NC(=O)[C@H](CC(=O)O)NC(=O)[C@@H](N)CCCNC(=N)N)C(C)C)[C@@H](C)O)C(C)C)[C@@H](C)O)C(=O)N[C@@H](CC(C)C)C(=O)N[C@@H](CC(=O)O)C(=O)O [P5] | >500 |  |  | 
CC[C@H](C)[C@H](NC(=O)[C@H](C)NC(=O)[C@@H](NC(=O)[C@H](CO)NC(=O)[C@@H](NC(=O)[C@H](CC(=O)O)NC(=O)[C@@H](NC(=O)[C@H](CS)NC(=O)[C@H](CC(N)=O)NC(=O)[C@@H](NC(=O)[C@H](CC(=O)O)NC(=O)[C@H](CCC(N)=O)NC(=O)[C@@H](N)Cc1ccc(O)cc1)C(C)C)[C@@H](C)O)C(C)C)[C@@H](C)O)C(=O)N[C@@H](Cc1c[nH]cn1)C(=O)N[C@@H](C)C(=O)N[C@@H](CC(=O)O)C(=O)N[C@@H](CCC(N)=O)C(=O)N[C@@H](CC(C)C)C(=O)N[C@H](C(=O)N1CCC[C@H]1C(=O)O)[C@@H](C)O [P6] | 113.0 (≈ 51.6 µM) | reduced | 18 % of the control | 
CC[C@H](C)[C@H](NC(=O)[C@@H](NC(=O)CNC(=O)[C@H](CC(N)=O)NC(=O)[C@H](CCC(=O)O)NC(=O)[C@H](CC(=O)O)NC(=O)[C@H](Cc1ccc(O)cc1)NC(=O)[C@H](CCCCN)NC(=O)[C@H](CC(C)C)NC(=O)[C@H](CCSC)NC(=O)[C@H](Cc1ccccc1)NC(=O)[C@@H](NC(=O)[C@@H](NC(=O)[C@@H]1CCCN1)[C@@H](C)O)[C@@H](C)O)[C@@H](C)O)C(=O)N[C@H](C(=O)N[C@@H](CC(=O)O)C(=O)N[C@@H](C)C(=O)N[C@H](C(=O)N[C@@H](CC(=O)O)C(=O)N[C@@H](CS)C(=O)O)C(C)C)[C@@H](C)O [P2] | 112.5 ± 26.3 (≈ 50.3 µM) | reduced | 18 % of the control | 
CC[C@H](C)[C@H](NC(=O)CNC(=O)[C@H](CO)NC(=O)[C@@H](NC(=O)[C@@H](NC(=O)[C@H](Cc1ccc(O)cc1)NC(=O)[C@H](Cc1ccccc1)NC(=O)CNC(=O)[C@H](Cc1ccc(O)cc1)NC(=O)[C@H](CC(=O)O)NC(=O)[C@H](CC(N)=O)NC(=O)[C@H](CC(C)C)NC(=O)[C@@H]1CCCN1C(=O)[C@H](Cc1c[nH]c2ccccc12)NC(=O)[C@H](Cc1ccc(O)cc1)NC(=O)[C@H](CS)NC(=O)[C@H](CC(N)=O)NC(=O)[C@H](CC(C)C)NC(=O)[C@H](C)NC(=O)[C@@H]1CCCN1)[C@@H](C)O)[C@@H](C)O)C(=O)O [P4] | >500 |  |  | 
CC[C@H](C)[C@H](NC(=O)CNC(=O)[C@H](CO)NC(=O)[C@H](CC(C)C)NC(=O)[C@H](C)NC(=O)[C@H](CCCNC(=N)N)NC(=O)[C@H](CC(N)=O)NC(=O)[C@H](CC(C)C)NC(=O)[C@H](CCC(N)=O)NC(=O)[C@@H](NC(=O)[C@H](CS)NC(=O)[C@H](Cc1ccccc1)NC(=O)[C@H](CO)NC(=O)CNC(=O)[C@H](Cc1ccc(O)cc1)NC(=O)[C@@H](N)CCC(N)=O)[C@@H](C)O)C(=O)N[C@@H](C)C(=O)N[C@@H](C)C(=O)N[C@@H](CCC(=O)O)C(=O)N[C@@H](CCC(N)=O)C(=O)O [P8] | 24.9 (≈ 11.5 µM) |  |  | None of the 10 peptide-treated cells exhibited cytotoxic effects
CC(C)C[C@H](NC(=O)[C@@H](N)C(C)C)C(=O)N[C@@H](Cc1ccc(O)cc1)C(=O)N[C@@H](CC(N)=O)C(=O)N[C@@H](CO)C(=O)N[C@H](C(=O)N[C@@H](Cc1ccccc1)C(=O)N[C@@H](Cc1ccccc1)C(=O)N[C@@H](CO)C(=O)N[C@H](C(=O)N[C@@H](Cc1ccccc1)C(=O)N[C@@H](CCCCN)C(=O)N[C@@H](CS)C(=O)N[C@@H](Cc1ccc(O)cc1)C(=O)NCC(=O)N[C@H](C(=O)N[C@@H](CO)C(=O)N[C@@H](C)C(=O)N[C@H](C(=O)N[C@@H](CCCCN)C(=O)O)[C@@H](C)O)C(C)C)[C@@H](C)O)[C@@H](C)O [P3] | >500 |  |  | 
CC[C@H](C)[C@H](NC(=O)[C@H](CO)NC(=O)[C@H](Cc1ccccc1)NC(=O)[C@H](CC(N)=O)NC(=O)[C@@H](NC(=O)[C@@H]1CCCN1C(=O)[C@@H](NC(=O)[C@H](C)NC(=O)[C@@H](NC(=O)[C@@H](NC(=O)[C@H](CC(N)=O)NC(=O)[C@H](CC(N)=O)NC(=O)[C@@H](N)CO)[C@@H](C)O)[C@@H](C)CC)[C@@H](C)CC)[C@@H](C)O)C(=O)N[C@@H](CO)C(=O)N[C@H](C(=O)N[C@H](C(=O)N[C@H](C(=O)N[C@@H](CCC(=O)O)C(=O)N[C@H](C(=O)N[C@@H](CCSC)C(=O)O)C(C)C)[C@@H](C)O)[C@@H](C)O)[C@@H](C)CC [P7] | >500 |  |  | 
